Data published in ChEMBL document CHEMBL4033713, “Click strategy using disodium salts of amino acids improves the water solubility of plinabulin and KPU-300” (Bioorg Med Chem, 2017).
≈ marks a conversion by molar mass, not a printed value.

Key:
[1] = Solubility of the compound in distilled water after 15 mins by HPLC method; type: physicochemical
[2] = target: T1, Liver carboxylesterase (Sus scrofa, UniProt Q29550); assay: Drug metabolism assessed as porcine liver carboxylic-ester hydrolase-mediated compound hydrolysis by measuring half-life by HPLC analysis; type: ADME; settings: pig, porcine liver carboxylic-ester hydrolase (liver esterase)
T1 sequence (Q29550 whole entry): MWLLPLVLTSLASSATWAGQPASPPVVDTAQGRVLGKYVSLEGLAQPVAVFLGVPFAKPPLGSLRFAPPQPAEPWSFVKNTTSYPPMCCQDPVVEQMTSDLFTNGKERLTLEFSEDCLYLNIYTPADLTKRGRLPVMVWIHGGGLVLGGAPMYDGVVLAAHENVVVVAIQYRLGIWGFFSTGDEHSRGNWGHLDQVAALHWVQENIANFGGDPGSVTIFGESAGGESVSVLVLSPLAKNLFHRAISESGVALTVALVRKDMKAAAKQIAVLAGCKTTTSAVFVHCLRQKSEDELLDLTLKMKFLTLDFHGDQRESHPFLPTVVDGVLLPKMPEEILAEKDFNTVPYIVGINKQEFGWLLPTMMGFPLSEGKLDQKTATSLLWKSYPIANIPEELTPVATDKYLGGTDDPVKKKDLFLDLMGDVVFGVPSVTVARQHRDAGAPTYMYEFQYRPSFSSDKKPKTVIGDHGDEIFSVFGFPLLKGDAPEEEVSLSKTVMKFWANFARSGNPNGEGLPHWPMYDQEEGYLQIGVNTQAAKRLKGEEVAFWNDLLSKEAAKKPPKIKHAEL

[3] = target: T1, Liver carboxylesterase; assay: Stability of the compound assessed as porcine liver esterase-mediated hydrolysis by measuring compound remaining after 48 hrs by HPLC method; type: ADME; settings: pig, read-out: Stability
[4] = target: T1, Liver carboxylesterase; assay: Drug level treated with Sodium (S)-2-(4-(4-((((3Z,6Z)-6-benzylidene-3-((5-(tertbutyl)-1H-imidazol-4-yl)methylene)-5-oxo-3,4,5,6-tetrahydropyrazin-2-yl)oxy)methoxy)-4-oxobutyl)-1H-1,2,3-triazol-1-yl)pentanedioate assessed as porcine liver carboxylic-ester hydrolase-mediated metabolite formation after 48 hrs by HPLC method; settings: pig
[5] = Solubility of the compound in water; type: physicochemical
[6] = target: T1, Liver carboxylesterase; assay: Drug level treated with Sodium (S)-2-(4-(4-((((3Z,6Z)-6-(3-benzoylbenzylidene)-5-oxo-3-(pyridine-2-ylmethylene)-3,4,5,6-tetrahydropyrazin-2-yl)oxy)methoxy)-4-oxobutyl)-1H-1,2,3-triazol-1-yl)succinate assessed as porcine liver carboxylic-ester hydrolase-mediated metabolite formation after 48 hrs by HPLC method; type: ADME; settings: pig
[7] = target: T1, Liver carboxylesterase; assay: Drug metabolism assessed as porcine liver carboxylic-ester hydrolase-mediated compound hydrolysis by measuring half-life at 500 ug by HPLC analysis; type: ADME; settings: pig, porcine liver carboxylic-ester hydrolase (liver esterase)
[8] = target: T1, Liver carboxylesterase; assay: Drug level treated with Sodium (S)-2-(4-(4-((((3Z,6Z)-6-benzylidene-3-((5-(tertbutyl)-1H-imidazol-4-yl)methylene)-5-oxo-3,4,5,6-tetrahydropyrazin-2-yl)oxy)methoxy)-4-oxobutyl)-1H-1,2,3-triazol-1-yl)succinate assessed as porcine liver carboxylic-ester hydrolase-mediated metabolite formation after 48 hrs by HPLC method; type: ADME; settings: pig

Row | SMILES | solubility at 0.25 h [1] [µg/mL] | half-life [2] [h] | further results
1 | C=O [FORMALDEHYDE] |  |  | Drug metabolism [4]: Metabolite_Detected
2 | CC(C)(C)c1[nH]cnc1/C=c1\[nH]c(=O)/c(=C/c2ccccc2)nc1OCOC(=O)CCCc1cn([C@@H]2O[C@H](CO)[C@H](O)[C@H](O)[C@H]2O)nn1 | 7.5 (≈ 11.3 µM) |  | 
3 | CC(C)(C)c1[nH]cnc1/C=c1\[nH]c(=O)/c(=C/c2ccccc2)nc1OCOC(=O)CCCc1cn([C@@H](CO)C(=O)[O-])nn1.[Na+] |  | 1 | solubility [5]: 6380 µg/mL
4 | CC(C)(C)c1[nH]cnc1/C=c1\[nH]c(=O)/c(=C/c2ccccc2)nc1OCOC(=O)CCCc1cn([C@H](CCC(=O)[O-])C(=O)[O-])nn1.[Na+].[Na+] | > 100000 | 9 | 
5 | O=C(c1ccccc1)c1cccc(/C=c2\[nH]c(=O)/c(=C/c3ccccn3)[nH]c2=O)c1 |  |  | Drug metabolism [6]: Metabolite_Detected; solubility [5]: < 0.1 µg/mL
6 | CC(C)(C)c1[nH]cnc1/C=c1\[nH]c(=O)/c(=C/c2ccccc2)nc1OCOC(=O)CCCc1cn(C[C@H](O)CC(=O)[O-])nn1.[Na+] | 850 |  | half-life [7]: 0.37 h
7 | CC(C)(C)c1[nH]cnc1/C=c1\[nH]c(=O)/c(=C/c2ccccc2)nc1OCOC(=O)CCCc1cn([C@@H](CC(=O)[O-])C(=O)[O-])nn1.[Na+].[Na+] | > 100000 | 12 | 
8 | CC(C)(C)c1[nH]cnc1/C=c1\[nH]c(=O)/c(=C/c2ccccc2)nc1OCOC(=O)CCCc1cn([C@@H](CCC(=O)[O-])C(=O)[O-])nn1.[Na+].[Na+] | > 100000 | 5.4 | 
9 | CC(C)(C)c1[nH]cnc1/C=c1\[nH]c(=O)/c(=C/c2ccccc2)[nH]c1=O [PLINABULIN] |  |  | Drug metabolism [8]: Metabolite_Detected; Drug metabolism [4]: Metabolite_Detected; solubility [5]: < 0.1 µg/mL

Second part, led by results:

Row | solubility at 0.25 h [1] [µg/mL] | half-life [2] [h] | SMILES | further results
10 | 80000 (≈ 118000 µM) | 8.7 | O=C(O)CC(C(=O)O)n1cc(CCCC(=O)OCOc2n/c(=C\c3cccc(C(=O)c4ccccc4)c3)c(=O)[nH]/c2=C\c2ccccn2)nn1 (single isomer, unassigned) | remaining at 48 h [3]: 20%
11 | 590 |  | CC(C)(C)c1[nH]cnc1/C=c1\[nH]c(=O)/c(=C/c2ccccc2)nc1OCOC(=O)CCCc1cn(CC(=O)[O-])nn1.[Na+] | 
